{"source": "patent US6906205B2", "about": "“Spiro and dispiro 1,2,4-trioxolane antimalarials” (Medicines for Malaria Venture MMV, priority 2002, dated 2005)"}
{"system": "P. falciparum K1 strain (Thailand resistant to chloroquine)", "experiment": "semiautomated microdilution assay, [3H]-hypoxanthine incorporation, K1 strain", "format": "cell-based, Plasmodium falciparum", "settings": "K1 strain, 72 h incubation", "outline": "(§1)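 Compounds were tested against intraerythrocytic parasites taken from asynchronous stock cultures, using semiautomated microdilution. IC50 values were estimated by logit regression analysis.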"}
{"smiles": "O=C(CN1C(=O)c2ccccc2C1=O)N1CCC2(CC1)OOC1(O2)C2CC3CC(C2)CC1C3", "note": "(centres unmarked) [OZ93]", "IC50 (ng/ml) K1": "3.3 ng/mL"}
{"smiles": "N=C(N)N1CCC2(CC1)OOC1(O2)C2CC3CC(C2)CC1C3", "note": "(centres unmarked) [OZ191]", "IC50 (ng/ml) K1": "6.0 ng/mL"}
{"smiles": "NC(=O)NC[C@H]1CC[C@]2(CC1)OOC1(O2)C2CC3CC(C2)CC1C3", "note": "(some centres unmarked) [OZ265]", "IC50 (ng/ml) K1": "0.56 ng/mL"}
{"smiles": "O=C(O)COCC(=O)N1CCC2(CC1)OOC1(O2)C2CC3CC(C2)CC1C3", "note": "(centres unmarked) [OZ112]", "IC50 (ng/ml) K1": ">10/>10 ng/ml"}
{"smiles": "OC1(Cc2ccccn2)CCC2(CC1)OOC1(O2)C2CC3CC(C2)CC1C3", "note": "(centres unmarked) [OZ275]", "IC50 (ng/ml) K1": "0.66 ng/mL"}
{"smiles": "CCOC(=O)c1cccc([C@H]2CC[C@]3(CC2)OOC2(O3)C3CC4CC(C3)CC2C4)c1", "note": "(some centres unmarked) [OZ208]", "IC50 (ng/ml) K1": "6.0 ng/mL"}
{"system": "P. falciparum NF54 strain (sensitive to standard antimalarials)", "experiment": "semiautomated microdilution assay, [3H]-hypoxanthine incorporation, NF54 strain", "format": "cell-based, Plasmodium falciparum", "settings": "NF54 strain, 72 h incubation", "outline": "as §1"}
{"smiles": "O=C(CN1C(=O)c2ccccc2C1=O)N1CCC2(CC1)OOC1(O2)C2CC3CC(C2)CC1C3", "note": "(centres unmarked) [OZ93]", "IC50 (ng/ml) NF54": "0.92 ng/mL"}
{"smiles": "N=C(N)N1CCC2(CC1)OOC1(O2)C2CC3CC(C2)CC1C3", "note": "(centres unmarked) [OZ191]", "IC50 (ng/ml) NF54": "> 10 ng/mL"}
{"smiles": "NC(=O)NC[C@H]1CC[C@]2(CC1)OOC1(O2)C2CC3CC(C2)CC1C3", "note": "(some centres unmarked) [OZ265]", "IC50 (ng/ml) NF54": "1.6 ng/mL"}
{"smiles": "O=C(O)COCC(=O)N1CCC2(CC1)OOC1(O2)C2CC3CC(C2)CC1C3", "note": "(centres unmarked) [OZ112]", "IC50 (ng/ml) NF54": ">10/>10 ng/ml"}
{"smiles": "OC1(Cc2ccccn2)CCC2(CC1)OOC1(O2)C2CC3CC(C2)CC1C3", "note": "(centres unmarked) [OZ275]", "IC50 (ng/ml) NF54": "0.74 ng/mL"}
{"smiles": "CCOC(=O)c1cccc([C@H]2CC[C@]3(CC2)OOC2(O3)C3CC4CC(C3)CC2C4)c1", "note": "(some centres unmarked) [OZ208]", "IC50 (ng/ml) NF54": "6.5 ng/mL"}
{"system": "ANKA strain of P. berghei", "experiment": "single dose STI in vivo screen in infected mice", "parameters": "species or system Plasmodium berghei", "settings": "percent reduction in parasitemia day 3 post-infection; single 10 mg/kg po in 3% ethanol and 7% Tween 80; mice", "outline": "(§2)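 Groups of 3-5 Moro SPF or NMRI mice infected with the ANKA strain of P. berghei received a single dose of trioxolane on day one post-infection. The compound was given in 3% ethanol and 7% Tween 80 or in SSV (0.5% w/v CMC, 0.5% v/v benzyl alcohol, 0.4% v/v Tween 80, 0.9% w/v sodium chloride in water). Antimalarial activity was scored as percent reduction in parasitemia on day three and as survival time versus untreated controls. Survival to day 30 counted as cure.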", "units": {"Activity (%) po": "%"}}
{"smiles": "O=C(CN1C(=O)c2ccccc2C1=O)N1CCC2(CC1)OOC1(O2)C2CC3CC(C2)CC1C3", "note": "(centres unmarked) [OZ93]", "Activity (%) po": 57}
{"smiles": "N=C(N)N1CCC2(CC1)OOC1(O2)C2CC3CC(C2)CC1C3", "note": "(centres unmarked) [OZ191]", "Activity (%) po": 7}
{"smiles": "NC(=O)NC[C@H]1CC[C@]2(CC1)OOC1(O2)C2CC3CC(C2)CC1C3", "note": "(some centres unmarked) [OZ265]", "Activity (%) po": 99}
{"smiles": "O=C(O)COCC(=O)N1CCC2(CC1)OOC1(O2)C2CC3CC(C2)CC1C3", "note": "(centres unmarked) [OZ112]", "Activity (%) po": 6}
{"smiles": "CCOC(=O)c1cccc([C@H]2CC[C@]3(CC2)OOC2(O3)C3CC4CC(C3)CC2C4)c1", "note": "(some centres unmarked) [OZ208]", "Activity (%) po": 0}
{"system": "ANKA strain of P. berghei", "experiment": "single dose STI in vivo screen in infected mice", "parameters": "species or system Plasmodium berghei", "settings": "percent reduction in parasitemia day 3 post-infection; single 10 mg/kg po in SSV", "outline": "as §2"}
{"smiles": "OC1(Cc2ccccn2)CCC2(CC1)OOC1(O2)C2CC3CC(C2)CC1C3", "note": "(centres unmarked) [OZ275]", "Activity (%) 10 mg/kg SSV po": "68/ND %"}
{"system": "ANKA strain of P. berghei", "experiment": "single dose STI in vivo screen in infected mice", "parameters": "species or system Plasmodium berghei", "settings": "percent reduction in parasitemia day 3 post-infection; single 10 mg/kg sc in 3% ethanol and 7% Tween 80; mice", "outline": "as §2", "units": {"Activity (%) sc": "%"}}
{"smiles": "O=C(CN1C(=O)c2ccccc2C1=O)N1CCC2(CC1)OOC1(O2)C2CC3CC(C2)CC1C3", "note": "(centres unmarked) [OZ93]", "Activity (%) sc": 100}
{"smiles": "N=C(N)N1CCC2(CC1)OOC1(O2)C2CC3CC(C2)CC1C3", "note": "(centres unmarked) [OZ191]", "Activity (%) sc": 17}
{"smiles": "NC(=O)NC[C@H]1CC[C@]2(CC1)OOC1(O2)C2CC3CC(C2)CC1C3", "note": "(some centres unmarked) [OZ265]", "Activity (%) sc": 99.67}
{"smiles": "O=C(O)COCC(=O)N1CCC2(CC1)OOC1(O2)C2CC3CC(C2)CC1C3", "note": "(centres unmarked) [OZ112]", "Activity (%) sc": 36}
{"smiles": "CCOC(=O)c1cccc([C@H]2CC[C@]3(CC2)OOC2(O3)C3CC4CC(C3)CC2C4)c1", "note": "(some centres unmarked) [OZ208]", "Activity (%) sc": 10}
{"system": "ANKA strain of P. berghei", "experiment": "single dose STI in vivo screen in infected mice", "parameters": "species or system Plasmodium berghei", "settings": "percent reduction in parasitemia day 3 post-infection; single po dose in standard suspending vehicle (SSV); mice", "outline": "as §2", "units": {"Activity (%) SSVpo": "%"}}
{"smiles": "O=C(CN1C(=O)c2ccccc2C1=O)N1CCC2(CC1)OOC1(O2)C2CC3CC(C2)CC1C3", "note": "(centres unmarked) [OZ93]", "Activity (%) SSVpo": 3}
{"smiles": "N=C(N)N1CCC2(CC1)OOC1(O2)C2CC3CC(C2)CC1C3", "note": "(centres unmarked) [OZ191]", "Activity (%) SSVpo": 5}
{"smiles": "NC(=O)NC[C@H]1CC[C@]2(CC1)OOC1(O2)C2CC3CC(C2)CC1C3", "note": "(some centres unmarked) [OZ265]", "Activity (%) SSVpo": 98}
{"smiles": "O=C(O)COCC(=O)N1CCC2(CC1)OOC1(O2)C2CC3CC(C2)CC1C3", "note": "(centres unmarked) [OZ112]", "Activity (%) SSVpo": 0}
{"smiles": "CCOC(=O)c1cccc([C@H]2CC[C@]3(CC2)OOC2(O3)C3CC4CC(C3)CC2C4)c1", "note": "(some centres unmarked) [OZ208]", "Activity (%) SSVpo": 29}
{"system": "ANKA strain of P. berghei", "experiment": "single dose STI in vivo screen in infected mice", "parameters": "species or system Plasmodium berghei", "settings": "single 10 mg/kg po in 3% ethanol and 7% Tween 80; untreated control 5.6 ± 0.3", "outline": "as §2", "units": {"Survival (days) po": "days"}}
{"smiles": "O=C(CN1C(=O)c2ccccc2C1=O)N1CCC2(CC1)OOC1(O2)C2CC3CC(C2)CC1C3", "note": "(centres unmarked) [OZ93]", "Survival (days) po": 6.7}
{"smiles": "N=C(N)N1CCC2(CC1)OOC1(O2)C2CC3CC(C2)CC1C3", "note": "(centres unmarked) [OZ191]", "Survival (days) po": 5.7}
{"smiles": "NC(=O)NC[C@H]1CC[C@]2(CC1)OOC1(O2)C2CC3CC(C2)CC1C3", "note": "(some centres unmarked) [OZ265]", "Survival (days) po": 13.0}
{"smiles": "O=C(O)COCC(=O)N1CCC2(CC1)OOC1(O2)C2CC3CC(C2)CC1C3", "note": "(centres unmarked) [OZ112]", "Survival (days) po": 5.7}
{"smiles": "CCOC(=O)c1cccc([C@H]2CC[C@]3(CC2)OOC2(O3)C3CC4CC(C3)CC2C4)c1", "note": "(some centres unmarked) [OZ208]", "Survival (days) po": 6.3}
{"system": "ANKA strain of P. berghei", "experiment": "single dose STI in vivo screen in infected mice", "parameters": "species or system Plasmodium berghei", "settings": "single 10 mg/kg po in SSV", "outline": "as §2"}
{"smiles": "OC1(Cc2ccccn2)CCC2(CC1)OOC1(O2)C2CC3CC(C2)CC1C3", "note": "(centres unmarked) [OZ275]", "Survival (days) 10 mg/kg SSV po": "7.3/ND days"}
{"system": "ANKA strain of P. berghei", "experiment": "single dose STI in vivo screen in infected mice", "parameters": "species or system Plasmodium berghei", "settings": "single 10 mg/kg sc in 3% ethanol and 7% Tween 80; untreated control 5.6 ± 0.3", "outline": "as §2", "units": {"Survival (days) sc": "days"}}
{"smiles": "O=C(CN1C(=O)c2ccccc2C1=O)N1CCC2(CC1)OOC1(O2)C2CC3CC(C2)CC1C3", "note": "(centres unmarked) [OZ93]", "Survival (days) sc": 13.3}
{"smiles": "N=C(N)N1CCC2(CC1)OOC1(O2)C2CC3CC(C2)CC1C3", "note": "(centres unmarked) [OZ191]", "Survival (days) sc": 6.0}
{"smiles": "NC(=O)NC[C@H]1CC[C@]2(CC1)OOC1(O2)C2CC3CC(C2)CC1C3", "note": "(some centres unmarked) [OZ265]", "Survival (days) sc": 11.7}
{"smiles": "O=C(O)COCC(=O)N1CCC2(CC1)OOC1(O2)C2CC3CC(C2)CC1C3", "note": "(centres unmarked) [OZ112]", "Survival (days) sc": 6.3}
{"smiles": "CCOC(=O)c1cccc([C@H]2CC[C@]3(CC2)OOC2(O3)C3CC4CC(C3)CC2C4)c1", "note": "(some centres unmarked) [OZ208]", "Survival (days) sc": 5.7}
{"system": "ANKA strain of P. berghei", "experiment": "single dose STI in vivo screen in infected mice", "parameters": "species or system Plasmodium berghei", "settings": "single po dose in SSV; untreated control 5.6 ± 0.3", "outline": "as §2", "units": {"Survival (days) SSVpo": "days"}}
{"smiles": "O=C(CN1C(=O)c2ccccc2C1=O)N1CCC2(CC1)OOC1(O2)C2CC3CC(C2)CC1C3", "note": "(centres unmarked) [OZ93]", "Survival (days) SSVpo": 6.0}
{"smiles": "N=C(N)N1CCC2(CC1)OOC1(O2)C2CC3CC(C2)CC1C3", "note": "(centres unmarked) [OZ191]", "Survival (days) SSVpo": 5.7}
{"smiles": "NC(=O)NC[C@H]1CC[C@]2(CC1)OOC1(O2)C2CC3CC(C2)CC1C3", "note": "(some centres unmarked) [OZ265]", "Survival (days) SSVpo": 9.7}
{"smiles": "O=C(O)COCC(=O)N1CCC2(CC1)OOC1(O2)C2CC3CC(C2)CC1C3", "note": "(centres unmarked) [OZ112]", "Survival (days) SSVpo": 5.7}
{"smiles": "CCOC(=O)c1cccc([C@H]2CC[C@]3(CC2)OOC2(O3)C3CC4CC(C3)CC2C4)c1", "note": "(some centres unmarked) [OZ208]", "Survival (days) SSVpo": 6.7}
